US20250268474A1, “Systems and Methods for Detecting Fibrosis” (3HELIX, INC., priority 2021, published 2025)
Where no end group is shown, it is not given here. [ ]: non-standard residue; d: D form. Pro(cis-4-F) = O=C(O)[C@@H]1C[C@H](F)CN1; Hyp = O=C(O)[C@@H]1C[C@@H](O)CN1

Test system: damaged/denatured collagen
Assay: LCHP in vivo imaging (fundus / ICG angiography) in CNV mice
Details: spontaneous CNV (JR5558), FIG. 6A; 1 nmol per animal, tail vein

With “sulfo-Cy7.5-GGG-OfGGOfGfGfOfOGOfGOOfGGOOff ({sulfo‑Cy7.5}-GGG[Hyp][Pro(cis-4-F)]GG[Hyp][Pro(cis-4-F)]G[Pro(cis-4-F)]G[Pro(cis-4-F)][Hyp][Pro(cis-4-F)][Hyp]G[Hyp][Pro(cis-4-F)]G[Hyp][Hyp][Pro(cis-4-F)]GG[Hyp][Hyp][Pro(cis-4-F)][Pro(cis-4-F)]; not fully specified; printed as sulfo-Cy7.5-GGG-OfGGOfGfGfOfOGOfGOOfGGOOff) [scrambled sCy7.5-CHP]” the “signal in IR, FA and ICGA imaging” value was “no significant signal was detected”.
